Assay results reported in patent publication US5281710A, “Dynemicin analogs: synthesis, methods of preparation and use” (The Scripps Research Institute, priority 1992, dated 1994).

What was measured:
[1] = Sulforhodamine B cytotoxicity, HMEC; assay type: cell-based, human; settings: human, read-out: cell viability
Procedure: (§1) In addition to the screening already discussed, several of the before-described compounds and chimeras were screened against several or all of a panel of ten to twenty-five cancerous cell lines as target cells and seven "normal" cell preparations. This screening utilized a sulforhodamine B cytotoxidity assay as discussed below.
(§2) IC50 values; i.e., the concentration of Compound required to kill one-half of the treated cells, were then calculated.
HMEC Human mammary epithelial cells

[2] = tested on: UCLA P-3 non-small cell lung carcinoma cells; test: Sulforhodamine B cytotoxicity, UCLA-P3; assay type: cell-based, human; settings: Homo sapiens, UCLA P-3, non small cell lung P-3; read-out: IC50
Procedure: as §1, §2
UCLA P-3 Dr. D. Morton, University of California, […]

[3] = tested on: Mel-7 breast carcinoma cells; test: Sulforhodamine B cytotoxicity, Mel-7 (breast carcinoma); assay type: cell-based; settings: Breast carcinoma cell
Procedure: as §1, §2

[4] = tested on: MOLT-4 (Leukemia) cell line; test: cells; assay type: cell-based
Method in brief: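 Screening panel: cancerous cell lines (ten to twenty-five) alongside seven "normal" preparations. Sulforhodamine B used to quantify cell kill; IC50 calculated.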

[5] = tested on: Ovcar-4 ovarian carcinoma cells; test: Sulforhodamine B cytotoxicity, Ovcar-4; assay type: cell-based; settings: Homo sapiens
Procedure: as §1, §2

M-14 melanoma cells = test: Sulforhodamine B cytotoxicity, M-14; assay type: cell-based; settings: Homo sapiens, M14
Procedure: as §1, §2
UCLA M-14 Dr. R. Reisfeld of The Scripps Research

Water solubility = assay type: physicochemical
[6] = tested on: HT-29 colon carcinoma cells; test: Sulforhodamine B cytotoxicity, HT-29; assay type: cell-based; settings: Homo sapiens, HT-29, colon carcinoma H-29 (Table 4) / HT-29 (Table 5); read-out: IC50
Procedure: as §1, §2

SK-Mel-28 melanoma cells = test: Sulforhodamine B cytotoxicity, SK-Mel-28; assay type: cell-based; settings: Homo sapiens, SK-MEL-28, SK-Mel-28; read-out: IC50
Procedure: as §1, §2

O=C(OCCS(=O)(=O)c1ccccc1)N1c2ccc(OCCO)cc2C23OC24CCCC3C#C/C=C\C#CC14 (centres unmarked) [Compound 153]
viability at 72 h ([1]; 10^-6 to 10^-7 M): 100% | viability at 72 h, 0.01 µM ([1]; 10^-8 M): 100% | IC50 [2]: 98 nM | IC50 [3]: 780 nM | viability at 0.01 µM ([4]; Homo sapiens, 72 h, 10^-8 M, Molt-4 tumor cells): 20% | relative potency (qualitative) ([4]; Molt-4): highest potency amongst all of the agents assayed against the Molt-4 leukemia cell line | IC50 [5]: 780 nM | IC50 (M-14 melanoma cells): 1600 nM | water solubility (Water solubility): increased solubility of Compound 153 in water compared to the other enediyne compounds | IC50 [6]: 1600 nM | IC50 (SK-Mel-28 melanoma cells): 3100 nM
